Among the data in publication PMC10653868, “The LytS-type histidine kinase BtsS is a 7-transmembrane receptor that binds pyruvate” (mBio, 2023) are Kd values, retold here.

The term Kd denotes the concentration at which binding is half-saturated.

Holding throughout (test): DRaCALA with […]-pyruvate and competition with cold pyruvate, membrane vesicles
Holding throughout (assay type): binding

The target of test [1] is T1, BtsS (Escherichia coli, UniProt P0AD14, S113A).
T1 construct: BtsS-S113A-6His in membrane vesicles of E. coli MG1655 ΔbtsSRΔypdABC

The target of test [2] is T2, BtsS (Escherichia coli, UniProt P0AD14, R72A).
T2 construct: BtsS-R72A-6His in membrane vesicles of E. coli MG1655 ΔbtsSRΔypdABC

Test [3] concerns the target T3, BtsS (Escherichia coli, UniProt P0AD14).
T3 construct: BtsS-6His in membrane vesicles of E. coli MG1655 ΔbtsSRΔypdABC

Test [4] addresses T4, BtsS (Escherichia coli, UniProt P0AD14, C110A).
T4 construct: BtsS-C110A-6His in membrane vesicles of E. coli MG1655 ΔbtsSRΔypdABC

Test [5] addresses T5, BtsS (Escherichia coli, UniProt P0AD14, R99A).
T5 construct: BtsS-R99A-6His in membrane vesicles of E. coli MG1655 ΔbtsSRΔypdABC

T1 sequence (P0AD14 whole entry S113A): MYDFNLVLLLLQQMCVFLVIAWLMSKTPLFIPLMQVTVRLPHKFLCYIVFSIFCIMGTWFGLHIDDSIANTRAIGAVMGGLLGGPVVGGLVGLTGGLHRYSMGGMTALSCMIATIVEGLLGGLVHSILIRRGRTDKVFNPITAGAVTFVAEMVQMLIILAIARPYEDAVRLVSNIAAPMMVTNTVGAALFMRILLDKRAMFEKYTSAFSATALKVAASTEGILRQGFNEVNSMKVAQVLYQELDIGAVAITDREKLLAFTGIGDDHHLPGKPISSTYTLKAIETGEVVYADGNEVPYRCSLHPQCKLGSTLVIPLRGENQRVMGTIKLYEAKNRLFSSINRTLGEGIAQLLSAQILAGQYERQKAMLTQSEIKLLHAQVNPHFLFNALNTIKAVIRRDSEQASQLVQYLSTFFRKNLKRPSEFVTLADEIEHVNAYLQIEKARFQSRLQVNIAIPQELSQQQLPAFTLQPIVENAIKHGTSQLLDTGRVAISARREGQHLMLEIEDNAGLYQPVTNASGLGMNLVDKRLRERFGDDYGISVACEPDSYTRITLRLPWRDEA
T5 sequence (P0AD14 whole entry R99A): as the sequence (P0AD14 whole entry S113A) above, with R99A, A113S counted along it
T4 sequence (P0AD14 whole entry C110A): as the sequence (P0AD14 whole entry S113A) above, with C110A, A113S counted along it
T3 sequence (P0AD14 whole entry): as the sequence (P0AD14 whole entry S113A) above, with A113S counted along it
T2 sequence (P0AD14 whole entry R72A): as the sequence (P0AD14 whole entry S113A) above, with R72A, A113S counted along it

For the molecule `CC(=O)C(=O)O` [pyruvate], the Kd at BtsS [1] came out at 284 ± 8 µM; on BtsS [2], 107 ± 12.3 µM; at BtsS [3] it was 67.3 ± 10.6 µM; at BtsS [4], 375 ± 21.2 µM; on BtsS [5], 245 ± 10.1 µM.
